Reference: the supplement of paper PMC10949913

Experiments:
Conditions in all cases: 48 h
CU-ACC1 [1] = assay: AC50 viability; higher = less potent
Summary of the method: (§1)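 For each of three adrenocortical carcinoma cell lines, 500–1,000 cells/well were placed in 5 µL medium in 1,536-well plates. A 23 nL volume of every library compound was added at 11 concentrations. Following 48 h, a 15-minute room-temperature CellTiter-Glo step preceded luminescence reading, with signals normalised per plate to vehicle and empty-well controls. AC50 and area under the curve were derived by curve fitting, retaining only inhibitory or non-responding curve classes.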

CU-ACC2 [2] = assay: AC50 viability; higher = less potent
Summary of the method: as §1

NCI-H295R [3] = assay: AC50 viability; higher = less potent
Summary of the method: as §1

CU-ACC1 [4] = assay: area under concentration-response curve (viability) (AUC (a.u.)); higher = less active
Summary of the method: as §1

CU-ACC2 [5] = assay: as above
Summary of the method: as §1

NCI-H295R [6] = assay: as above
Summary of the method: as §1

Compound	AC50 viability (CU-ACC1 [1]) [µM]	AC50 viability (CU-ACC2 [2]) [µM]	AC50 viability (NCI-H295R [3]) [µM]	area under concentration-response curve (CU-ACC1 [4])	area under concentration-response curve (CU-ACC2 [5])	area under concentration-response curve (NCI-H295R [6])
COC(=O)[C@]12CCC(C)(C)C[C@H]1[C@H]3C(=O)\C=C\4[C@@](C)(CC[C@H]5C(C)(C)C(=O)\C(=C/[C@]45C)C#N)[C@]3(C)CC2	20.9	16.6	13.2	402	375	412
C=CC(=O)Nc1cccc(Nc2nc(Nc3ccc(Oc4ccnc(C(=O)NC)c4)cc3)ncc2F)c1	29.5	23.5	16.6	464	596	467
O=C(/C=C\n1cnc(-c2cc(C(F)(F)F)cc(C(F)(F)F)c2)n1)NNc1ccccn1	2.35	1.32	10.5	273	245	271
Cc1ccc(NC(=O)c2ccc(CN3CCN(C)CC3)cc2)cc1Nc1nc(-c2cccnc2)cs1	23.5	23.5	18.6	503	586	547
CCC(=O)N1CCN(CC1)C2=C(C=C(C=C2)N3C(=O)\C=C/C4=C3C5=CC(=CC=C5N=C4)C6=CN=C7C=CC=CC7=C6)C(F)(F)F	0.0102	0.0456	0.129	305	362	326
Nc1ccccc1NC(=O)c1ccc(CNC(=O)OCc2cccnc2)cc1	3.72	14.8	3.72	422	523	440
CCCCNc1ncc2c(-c3ccc(CN4CCN(C)CC4)cc3)cn([C@H]3CC[C@H](O)CC3)c2n1	16.6	7.42	10.5	476	544	481
COc1cc(N2CCC(N3CCN(C)CC3)CC2)ccc1Nc1ncc(Cl)c(Nc2ccccc2P(C)(C)=O)n1	2.09	1.32	2.63	383	398	409
CC/1=C/C[C@]23O[C@@]2(C)CC[C@@H]4[C@H](OC(=O)C4=C)[C@@H]13	14.8	16.6	18.6	447	509	435
CC(C)C[C@H](NC(=O)CNC(=O)c1cc(Cl)ccc1Cl)B(O)O	0.166	0.209	0.105	329	373	408
Oc1ccc(-c2ccc(-c3cc(Nc4cccc(CNC5CC5)c4)[nH]n3)cc2)c(O)c1	14.8	10.5	18.6	498	556	531
CO[C@H]1CC[C@H](N2C(=O)CNc3ncc(-c4ccc(C(C)(C)O)nc4)nc32)CC1	16.6	18.6	18.6	462	570	502
C[C@@H]1CN(CC(=O)N2CC(C)(C)c3ncc(Cc4ccc(F)cc4)cc32)[C@@H](CN2CCOC[C@H]2C)CN1	18.6	1.32	20.9	449	451	462
C=CC(=O)Nc1cccc(Oc2nc(Nc3ccc(N4CCN(C)CC4)cc3)ncc2Cl)c1	8.33	9.34	5.9	428	402	431
COc1ccc2c(c[n+](C)c3c4cc5c(cc4ccc23)OCO5)c1OC	20.9	33.2	20.9	445	465	402
Nc1nc(Nc2ccc([S+](N)(=O)[O-])cc2)nn1C(=O)c1c(F)cccc1F	11.8	3.32	20.9	443	466	488
CNC(=O)CCc1cc(-c2ccc(-c3ccc(C(F)(F)F)cc3)cc2)n(-c2ccc(N3CCNCC3)cc2)n1	4.68	7.42	8.33	432	476	487
CC(C)C1=C(O)C=C(O)C(=C1)C/2=N/NC(=O)N2C3=CC4=C(C=C3)[N](C)C=C4	0.0934	0.0186	0.132	322	309	416
C[C@@H]1C[C@@H]([C@H](O)CC2CC(=O)NC(=O)C2)C(=O)[C@@H](C)C1	1.05	0.59	2.95	345	333	405
CC[C@@]1(O)C(=O)OC/C2=C1/C=C3\N(CC4=C5[C@@H](N)CCC6=C5C(=CC(=C6C)F)N=C34)C2=O	2.09	2.35	3.72	388	486	437
C[C@@]12O[C@@H](C[C@]1(O)CO)n1c3ccccc3c3c4c(c5c6ccccc6n2c5c31)CNC4=O	6.61	9.34	14.8	380	346	407
CN1CCC(CNc2ccc3ncc(-c4cccc(OC(F)(F)F)c4)n3n2)CC1	7.42	13.2	9.34	413	460	416
COC1=CC2=C(C=C1CC3=C(F)C(=CC=C3)Cl)C(=O)\C(=C/N2[C@H](CO)C(C)C)C(O)=O	16.6	14.8	20.9	405	528	509
Cc1cc(I)ccc1Nc1c(C(=O)NOCC2CC2)cc(F)c(F)c1F	16.6	18.6	8.33	445	554	490
CC(C)c1cc(CNc2nc(Nc3cc(C4CC4)[nH]n3)cc(N3CCN(C)CC3)n2)on1	8.33	2.95	5.9	429	325	411
COc1cc2ncnc(Nc3ccc(F)c(Cl)c3)c2cc1NC(=O)/C=C/CN1CCCCC1	10.5	8.33	6.61	414	493	459

Compound	AC50 viability (CU-ACC1 [1]) [µM]	AC50 viability (CU-ACC2 [2]) [µM]	AC50 viability (NCI-H295R [3]) [µM]	area under concentration-response curve (CU-ACC1 [4])	area under concentration-response curve (CU-ACC2 [5])	area under concentration-response curve (NCI-H295R [6])
CC(C)C[C@H](NC(=O)CNC(=O)c1cc(Cl)ccc1Cl)B1OC(=O)CC(CC(=O)O)(C(=O)O)O1 (some centres not stated)	0.263	0.332	0.372	302	380	413
CCn1nnc2c(N3CCOCC3)nc(-c3ccc(NC(=O)Nc4ccc(C(=O)N5CCN(C)CC5)cc4)cc3)nc21	1.18	0.468	5.9	357	434	453
Cc1cc(Nc2cc(NC(=O)c3c(Cl)cccc3Cl)ccn2)nc(N)n1	11.8	5.9	13.2	457	522	439
NC1(CCC1)C2=CC=C(C=C2)C3=C(C=C/4C(=N3)\C=C/N5C(=O)N\N=C45)C6=CC=CC=C6	9.34	18.6	16.6	442	523	404
CNC(=O)c1cc(COc2nnc(Nc3ccc(Cl)cc3)c3ccoc23)ccn1	1.86	8.33	5.25	419	462	423
O=C(NO)c1cnc(NC2(c3ccccc3)CC2)nc1	11.8	16.6	5.25	423	499	465
O=C1NC(=O)/C(=C/c2ccc3nccc(-c4ccncc4)c3c2)S1	1.32	1.18	1.32	412	480	393
CCOC1=CC=CC=C1N\2C(=O)C3=C(C=CC=C3)\N=C2C(C)N4CCN(CC4)C(=O)COC5=CC=C(Cl)C=C5 (configuration not stated)	0.934	2.95	5.9	373	509	448
C=CC(=O)Nc1cccc(Nc2nc(Nc3ccc(N4CCN(C(C)=O)CC4)cc3OC)ncc2C(F)(F)F)c1	4.68	3.72	5.25	335	394	362
ClC1=CC\2=C(NC(=O)\C(=C2N[C@@H]3CN4CCC3CC4)C5=NC6=C([NH]5)C=CC=C6)C=C1	16.6	5.25	0.118	404	365	404
O=C(c1ccc(Nc2nccc(-c3cc4ccccc4s3)n2)cc1)N1CCC(N2CCCC2)CC1	9.34	7.42	6.61	446	521	462
O=C(Nc1ccccc1-c1cn2c(CN3CCNCC3)csc2n1)c1cnc2ccccc2n1	6.61	7.42	2.95	367	366	358
O=C(CCCCCCNC(=O)c1cnc(N(c2ccccc2)c2ccccc2)nc1)NO	18.6	11.8	20.9	364	552	525
C[C@H]([C@H]1C\C(=C(CO)/C(=O)O1)C)[C@H]2CC[C@H]3[C@@H]4C[C@H]5O[C@]56[C@@H](O)\C=C/C(=O)[C@]6(C)[C@H]4CC[C@]23C	1.48	0.468	1.18	270	393	401
CN[C@@H]1C[C@H]2O[C@@](C)([C@@H]1OC)n1c3ccccc3c3c4c(c5c6ccccc6n2c5c31)C(=O)N[C@H]4O	0.762	0.34	0.959	301	209	269
CCN1CCN(C(=O)Cc2ccc(Nc3ncc(F)c(Nc4ccc(C(=O)Nc5ccccc5Cl)cc4)n3)cc2)CC1	9.34	8.33	7.42	412	490	389
CN(C)c1cc2c(cc1Sc1nc3c(N)nccc3n1CCNCC(C)(C)C)OCO2	2.95	2.95	2.35	391	499	467
Nc1ccc(C(=O)c2cc3c(ccc4ccccc43)[nH]2)cc1	6.05	38.2	12.1	466	471	419
Cn1ncc(Cl)c1-c1cc(C(=O)NC(CN)Cc2ccc(F)c(F)c2)oc1Cl (configuration not stated)	6.61	16.6	5.9	393	422	403
COc1cccc2c1C(=O)c1c(O)c3c(c(O)c1C2=O)C[C@@](O)(C(=O)CO)CC3OC1CC(N2CCOC(OC)C2)C(O)C(C)O1 (some centres not stated)	0.0833	0.059	0.0833	284	302	282
COc1cc(-c2nn(C3CCC(N4CCN(C(C)=O)CC4)CC3)c3ncnc(N)c23)ccc1NC(=O)c1cc2ccccc2n1C (configuration not stated)	8.33	10.5	9.34	418	512	460
COC(=O)C/1=C(C)/N/C(=C(\C1C2=CC(=CC=C2)[N+]([O-])=O)C(=O)OCCCN3CCC(CC3)(C4=CC=CC=C4)C5=CC=CC=C5)C (configuration not stated)	13.2	16.6	7.42	426	374	465
COc1cc(C)c(Sc2cnc(NC(=O)c3ccc(CNC(C)C(C)(C)C)cc3)s2)cc1C(=O)N1CCN(C(C)=O)CC1 (configuration not stated)	18.6	16.6	9.34	440	443	354
CC(=O)O/N=C1\C(=O)N(Cc2cc(Cl)ccc2Cl)c2ccc(Cl)cc21	2.09	7.42	13.2	448	382	504
CC(C)[C@]12O[C@H]1[C@@H]3O[C@@]34[C@@]5(C)CC\C6=C(COC6=O)/[C@@H]5C[C@@H]7O[C@]47C2=O	0.0417	0.0525	0.833	245	270	329
Cc1n[nH]c2ccc(-c3cncc(OC[C@@H](N)Cc4ccccc4)c3)cc12	1.48	1.18	2.35	305	342	294
